The first assay has as its target T1, CFTR (Homo sapiens, UniProt P13569).
T1 construct: endogenous in cells; host or cells: T84 human colonic cells (ECACC)
The assay is described as follows: T84 assay (FLIPR membrane potential dye, forskolin/IBMX-stimulated CFTR channel activity). To be noted: imidazole and triazole-containing compounds (Tables 13, 14, 14′), read-out: IC50 (μM) (T84 assay). Format: cell-based. The procedure, abridged:
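Fluorescence from a membrane potential dye in T84 monolayers (HBSS with 10 mM Hepes) is followed each second for 150 s. Cells are exposed to test compound during the 45 min dye loading, then challenged with forskolin (10 μM) and IBMX (100 μM) to open CFTR. Inhibitors suppress the depolarization-driven fluorescence increase.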
T1 sequence (P13569 whole entry): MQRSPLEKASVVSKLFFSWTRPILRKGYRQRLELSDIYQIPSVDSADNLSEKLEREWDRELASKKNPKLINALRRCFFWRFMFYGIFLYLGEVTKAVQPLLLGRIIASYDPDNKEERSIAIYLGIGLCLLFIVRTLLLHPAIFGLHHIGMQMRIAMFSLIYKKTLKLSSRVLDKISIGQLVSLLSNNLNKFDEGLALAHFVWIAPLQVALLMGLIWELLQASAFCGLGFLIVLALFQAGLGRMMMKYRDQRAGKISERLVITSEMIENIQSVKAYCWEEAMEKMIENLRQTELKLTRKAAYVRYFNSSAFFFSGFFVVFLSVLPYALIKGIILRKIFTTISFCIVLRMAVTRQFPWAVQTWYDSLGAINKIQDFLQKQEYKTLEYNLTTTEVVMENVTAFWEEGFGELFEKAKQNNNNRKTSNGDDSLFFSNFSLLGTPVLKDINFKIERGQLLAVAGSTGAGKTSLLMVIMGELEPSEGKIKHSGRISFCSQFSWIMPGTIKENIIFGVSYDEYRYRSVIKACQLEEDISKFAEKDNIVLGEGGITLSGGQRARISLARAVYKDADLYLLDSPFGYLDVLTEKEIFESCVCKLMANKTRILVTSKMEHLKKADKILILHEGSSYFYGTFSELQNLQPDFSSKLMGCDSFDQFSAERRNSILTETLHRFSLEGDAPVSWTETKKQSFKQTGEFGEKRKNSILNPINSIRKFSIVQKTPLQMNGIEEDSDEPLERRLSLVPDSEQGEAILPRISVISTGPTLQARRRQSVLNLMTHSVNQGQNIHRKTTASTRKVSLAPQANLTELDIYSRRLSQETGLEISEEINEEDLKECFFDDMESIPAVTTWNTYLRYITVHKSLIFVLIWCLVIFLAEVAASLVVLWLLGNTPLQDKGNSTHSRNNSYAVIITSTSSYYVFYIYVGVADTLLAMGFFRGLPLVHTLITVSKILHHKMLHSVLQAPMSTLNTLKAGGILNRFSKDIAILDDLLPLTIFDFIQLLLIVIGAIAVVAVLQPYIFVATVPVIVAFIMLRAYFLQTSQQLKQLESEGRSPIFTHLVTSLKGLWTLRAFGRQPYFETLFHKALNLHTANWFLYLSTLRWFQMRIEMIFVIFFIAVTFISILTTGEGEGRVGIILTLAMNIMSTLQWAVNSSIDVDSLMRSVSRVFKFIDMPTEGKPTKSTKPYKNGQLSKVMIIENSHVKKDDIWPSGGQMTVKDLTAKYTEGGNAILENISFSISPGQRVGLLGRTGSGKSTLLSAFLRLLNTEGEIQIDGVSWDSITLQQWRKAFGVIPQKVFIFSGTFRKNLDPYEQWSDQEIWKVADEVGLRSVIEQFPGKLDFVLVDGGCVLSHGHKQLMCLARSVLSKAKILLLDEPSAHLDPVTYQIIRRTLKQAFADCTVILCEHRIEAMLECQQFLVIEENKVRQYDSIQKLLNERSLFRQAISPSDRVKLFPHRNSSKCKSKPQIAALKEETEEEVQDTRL
`COCCOCCOCCON(Cc1ccc(Oc2ccccc2)cc1)C(=O)c1ncn(-c2cc(Cl)c(O)c(Cl)c2)n1` [123i, 1-(3,5-dichloro-4-hydroxyphenyl)-N-(2-(2-(2-methoxyethoxy)ethoxy)ethoxy)-N-(4-phenoxybenzyl)-1H-1,2,4-triazole-3-carboxamide]: the IC50 stood at 8.44 µM.

For `O=C(NCc1cccc(C(F)(F)F)c1)c1ncn(-c2cc(Cl)c(O)c(Cl)c2)n1` [8i, 1-(3,5-dichloro-4-hydroxyphenyl)-N-(3-(trifluoromethyl)benzyl)-1H-1,2,4-triazole-3-carboxamide], the IC50 came to 22.4 µM.

On to `O=C(NCc1cc(F)c(F)c(F)c1)c1ncn(-c2cc(Cl)c(O)c(Cl)c2)n1` [43i, 1-(3,5-dichloro-4-hydroxyphenyl)-N-(3,4,5-trifluorobenzyl)-1H-1,2,4-triazole-3-carboxamide], for which the IC50 amounted to 13.3 µM.

As to `O=C(NCc1cccc(N2CCCCC2)c1)c1ncn(-c2cc(Cl)c(O)c(Cl)c2)n1` [38i, 1-(3,5-dichloro-4-hydroxyphenyl)-N-(3-(piperidin-1-yl)benzyl)-1H-1,2,4-triazole-3-carboxamide], the IC50 is 5.61 µM.

Still in this assay, the particulars now being: isoxazole-containing compounds (Table 10, 10′, 11, 11′), read-out: IC50.
`CN(Cc1ccc(C(F)(F)F)cc1)C(=O)c1cc(-c2cc(Cl)c(O)c(Cl)c2)on1` [7g, 5-(3,5-dichloro-4-hydroxyphenyl)-N-methyl-N-(4(trifluoromethyl)benzyl)isoxazole-3-carboxamide]: the IC50 worked out at 10.6 µM.

Regarding `COc1ccccc1N1CCN(C(=O)c2cc(-c3cc(Br)c(O)c(Br)c3)on2)CC1` [11g, (5-(3,5-dibromo-4-hydroxyphenyl)isoxazol-3-yl)(4(2-methoxyphenyl)piperazin-1-yl)methanone], the concentration for half-maximal inhibition (IC50) came to 14.2 µM.

On to `O=C(c1cc(-c2cc(Br)c(O)c(Br)c2)on1)N1CCN(c2ccc(Cl)c(Cl)c2)CC1` [10g, (5-(3,5-dibromo-4-hydroxyphenyl)isoxazol-3-yl)(4-(3,4-dichlorophenyl)piperazin-1-yl)methanone], for which the IC50 was 7.4 µM.

The same assay, now with this note: oxadiazole-containing compounds (a series), average of at least 2 runs unless annotated n = 1, read-out: IC50.
As for `O=C(NCc1cccc(OC(F)F)c1)c1nc(-c2cc(Cl)c(O)c(Cl)c2)no1` [135a, 3-(3,5-dichloro-4-hydroxyphenyl)-N-(3-(difluoromethoxy)benzyl)-1,2,4-oxadiazole-5-carboxamide], the IC50 was determined as 20.4 µM.

Turning to `O=C(NCc1cc(Cl)cc(Cl)c1)c1noc(-c2cc(Cl)c(O)c(Cl)c2)n1` [85a, 5-(3,5-dichloro-4-hydroxyphenyl)-N-(3,5-dichlorobenzyl)-1,2,4-oxadiazole-3-carboxamide], the IC50 is 2.33 µM.

As for `O=C(NCc1cccc(C(F)(F)F)c1)c1noc(-c2cc(Cl)c(O)c(Cl)c2)n1` [74a, 5-(3,5-dichloro-4-hydroxyphenyl)-N-(3-(trifluoromethyl)benzyl)-1,2,4-oxadiazole-3-carboxamide], the IC50 stood at 2.6 µM.

Take `O=C(Nc1ccc(Oc2ccccc2)cc1)c1nc(-c2cc(Br)c(O)c(Br)c2)no1` [104a, 3-(3,5-dibromo-4-hydroxyphenyl)-N-(4-phenoxyphenyl)-1,2,4-oxadiazole-5-carboxamide]: the IC50 was found to be 23 µM.

For the compound `O=C(NCc1ccc(Oc2ccc(F)c(C(F)(F)F)c2)cc1)c1nc(-c2cc(Cl)c(O)c(Cl)c2)no1` [200a, 3-(3,5-Dichloro-4-hydroxyphenyl)-N-(4-(4-fluoro-3-(trifluoromethyl)phenoxy)benzyl)-1,2,4-oxadiazole-5-carboxamide], the concentration for half-maximal inhibition (IC50) stood at 13.2 µM.

On to `O=C(NCc1cc(F)cc(F)c1)c1nc(-c2cc(Cl)c(O)c(Cl)c2)no1` [137a, 3-(3,5-dichloro-4-hydroxyphenyl)-N-(3,5-difluorobenzyl)-1,2,4-oxadiazole-5-carboxamide], for which the IC50 was 24.4 µM.

Regarding `O=C(c1nc(-c2cc(Br)c(O)c(Br)c2)no1)N1CCN(c2ccc(Cl)cc2F)CC1` [19a, (4-(4-chloro-2-fluorophenyl)piperazin-1-yl)(3-(3,5-dibromo-4-hydroxyphenyl)-1,2,4-oxadiazol-5-yl)methanone], the half-maximal inhibitory concentration (IC50) was 7.1 µM.

In the case of `CN(Cc1ccc(N2CCOCC2)cc1)C(=O)c1nc(-c2cc(Cl)c(O)c(Cl)c2)no1` [187a, 3-(3,5-dichloro-4-hydroxyphenyl)-N-methyl-N-(4-morpholinobenzyl)-1,2,4-oxadiazole-5-carboxamide], the IC50 is 24.4 µM.

For the compound `O=C(NCc1c(F)cccc1F)c1noc(-c2cc(Cl)c(O)c(Cl)c2)n1` [103a, 5-(3,5-dichloro-4-hydroxyphenyl)-N-(2,6-difluorobenzyl)-1,2,4-oxadiazole-3-carboxamide], the IC50 is 9.64 µM.

As to `O=C(NCc1ccc(Cl)c(Cl)c1)c1nc(-c2cc(Br)c(O)c(Br)c2)no1` [22a, 3-(3,5-dibromo-4-hydroxyphenyl)-N-(3,4-dichlorobenzyl)-1,2,4-oxadiazole-5-carboxamide], the IC50 came out at 11 µM.

`O=C(NCc1ccc(Oc2ccc(OC(F)(F)F)cc2)cc1)c1nc(-c2cc(Cl)c(O)c(Cl)c2)no1` [181a, 3-(3,5-dichloro-4-hydroxyphenyl)-N-(4-(4-(trifluoromethoxy)phenoxy)benzyl)-1,2,4-oxadiazole-5-carboxamide]: the IC50 worked out at 18.7 µM.

Consider `O=C(c1nc(-c2cc(Br)c(O)c(Br)c2)no1)N1CCC(Cc2ccccc2)CC1` [18a, (4-benzylpiperidin-1-yl)(3-(3,5-dibromo-4-hydroxyphenyl)-1,2,4-oxadiazol-5-yl)methanone], for which the IC50 stood at 12.3 µM.

Take `O=C(c1nc(-c2cc(Br)c(O)c(Br)c2)no1)N1CCN(c2ccc(Cl)c(C(F)(F)F)c2)CC1` [4a, (4-(4-chloro-3-(trifluoromethyl)phenyl)piperazin-1-yl)(3-(3,5-dibromo-4-hydroxyphenyl)-1,2,4-oxadiazol-5-yl)methanone]: the IC50 turned out to be 4.72 µM.

For `CN(C)c1ccc(CNC(=O)c2nc(-c3cc(Cl)c(O)c(Cl)c3)no2)cc1` [133a, 3-(3,5-dichloro-4-hydroxyphenyl)-N-(4-(dimethylamino)benzyl)-1,2,4-oxadiazole-5-carboxamide], the IC50 was determined as 17.9 µM.

For the compound `O=C(NCc1ccc(Cl)c(F)c1)c1nc(-c2cc(Cl)c(O)c(Cl)c2)no1` [123a, N-(4-chloro-3-fluorobenzyl)-3-(3,5-dichloro-4-hydroxyphenyl)-1,2,4-oxadiazole-5-carboxamide], the IC50 is 16.4 µM.

Take `CN(C)c1cccc(Oc2ccc(CNC(=O)c3nc(-c4cc(Cl)c(O)c(Cl)c4)no3)cc2)c1` [199a, 3-(3,5-dichloro-4-hydroxyphenyl)-N-(4-(3-(dimethylamino)phenoxy)benzyl)-1,2,4-oxadiazole-5-carboxamide]: the IC50 is 12.2 µM.

On to `COC(=O)C1CCN(C(=O)COc2c(Br)cc(-c3noc(C(=O)N4CCC(Cc5ccccc5)CC4)n3)cc2Br)CC1` [68a, methyl 1-(2-(4-(5-(4-benzylpiperidine-1-carbonyl)-1,2,4-oxadiazol-3-yl)-2,6-dibromophenoxy)acetyl)piperidine-4-carboxylate], for which the IC50 worked out at 10.3 µM.

In the case of `O=C(NCc1cc(C(F)(F)F)cc(C(F)(F)F)c1)c1nc(-c2cc(Br)c(O)c(Br)c2)no1` [20a, N-(3,5-bis(trifluoromethyl)benzyl)-3-(3,5-dibromo-4-hydroxyphenyl)-1,2,4-oxadiazole-5-carboxamide], the IC50 was 10.5 µM.

As for `CCN(Cc1ccccc1)C(=O)c1nc(-c2cc(Cl)c(O)c(Cl)c2)no1` [140a, N-benzyl-3-(3,5-dichloro-4-hydroxyphenyl)-N-ethyl-1,2,4-oxadiazole-5-carboxamide], the IC50 came out at 19.9 µM.

For `COCCOCCN(Cc1cccc(C(F)(F)F)c1)C(=O)c1nc(-c2cc(Cl)c(O)c(Cl)c2)no1` [111a, 3-(3,5-dichloro-4-hydroxyphenyl)-N-(2-(2-methoxyethoxy)ethyl)-N-(3-(trifluoromethyl)benzyl)-1,2,4-oxadiazole-5-carboxamide], the IC50 was found to be 6.14 µM.

With `O=C(c1nc(-c2cc(Br)c(O)c(Br)c2)no1)N1CCC(C(O)(c2ccccc2)c2ccccc2)CC1` [203a, (3-(3,5-dibromo-4-hydroxyphenyl)-1,2,4-oxadiazol-5-yl)(4-(hydroxydiphenylmethyl)piperidin-1-yl)methanone], the IC50 came out at 25.9 µM.

For `CC(NC(=O)c1nc(-c2cc(Cl)c(O)c(Cl)c2)no1)c1ccc(Cl)cc1` (stereo not shown) [149a, N-(1-(4-chlorophenyl)ethyl)-3-(3,5-dichloro-4-hydroxyphenyl)-1,2,4-oxadiazole-5-carboxamide], the IC50 was 6.7 µM.

With `O=C(c1nc(-c2cc(Br)c(O)c(Br)c2)no1)N(Cc1cccnc1)Cc1cccc(C(F)(F)F)c1` [2a, 3-(3,5-dibromo-4-hydroxyphenyl)-N-(pyridin-3-ylmethyl)-N-(3-(trifluoromethyl)benzyl)-1,2,4-oxadiazole-5-carboxamide], the IC50 was found to be 1.03 µM.

For `CN(Cc1cccc(C(F)(F)F)c1)C(=O)c1noc(-c2cc(Cl)c(OCC(=O)O)c(Cl)c2)n1` [106a, 2-(2,6-dichloro-4-(3-(methyl(3-(trifluoromethyl)benzyl)carbamoyl)-1,2,4-oxadiazol-5-yl)phenoxy)acetic acid], the IC50 was 24.6 µM.

On to `O=C(c1noc(-c2cc(Br)c(O)c(Br)c2)n1)N1CCC(Cc2ccccc2)CC1` [66a, (4-benzylpiperidin-1-yl)(5-(3,5-dibromo-4-hydroxyphenyl)-1,2,4-oxadiazol-3-yl)methanone], for which the IC50 is 11.7 µM.

The same assay, now with this note: thiadiazole-containing compounds (Table 12), read-out: IC50.
Consider `Oc1c(Cl)cc(-c2nnc(Cc3cccc(Cl)c3)s2)cc1Cl` [1h, 2,6-dichloro-4-(5-(3-chlorobenzyl)-1,3,4-thiadiazol-2-yl)phenol], for which the IC50 amounted to 5.65 µM.

The same assay, now with this note: triazine-containing compounds (Table 8 and 8′), read-out: IC50.
In the case of `Oc1c(Br)cc(-c2cnc(OCc3cccc(OCc4ccccc4)c3)nn2)cc1Br` [89e, 4-(3-(3-(benzyloxy)benzyloxy)-1,2,4-triazin-6-yl)-2,6-dibromophenol], the IC50 amounted to 1.47 µM.

The values are drawn from US20100144733A1, “Compounds, compositions and methods comprising heteroaromatic derivatives” (Institute for OneWorld Health, priority 2008, published 2010).
